We go through four compounds from paper PMC3031978 (Bioorganic & medicinal chemistry letters, 2010).

“Also recorded” adds a separate entry of the source. Some results are limits rather than exact numbers.

In data set [1] the target is T1, KOR (Homo sapiens, UniProt P41145). The data set is classed as binding.
Data set [2] deals with T1, KOR. The data set is classed as binding. The source holds these as a separate data set.
The target of data set [3] is T1, KOR. The data set is classed as biochemical.
The conditions of data set [4]: cited from earlier work.

T1 sequence (P41145 whole entry): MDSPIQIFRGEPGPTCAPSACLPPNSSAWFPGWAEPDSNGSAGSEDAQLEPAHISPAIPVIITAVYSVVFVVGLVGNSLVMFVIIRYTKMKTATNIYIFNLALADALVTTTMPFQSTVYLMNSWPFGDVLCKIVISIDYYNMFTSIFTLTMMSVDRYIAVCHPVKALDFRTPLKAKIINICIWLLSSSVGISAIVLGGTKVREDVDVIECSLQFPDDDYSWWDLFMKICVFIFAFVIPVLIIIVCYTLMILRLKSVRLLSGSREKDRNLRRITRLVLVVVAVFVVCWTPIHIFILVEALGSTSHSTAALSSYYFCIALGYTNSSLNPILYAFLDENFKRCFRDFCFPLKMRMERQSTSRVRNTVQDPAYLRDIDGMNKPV

Turning to `COC(=O)[C@@H]1C[C@H](OC(=O)[C@H](C)N)C(=O)[C@H]2[C@@]1(C)CC[C@H]1C(=O)O[C@H](c3ccoc3)C[C@]21C` [Analogue 10], on KOR [1], the DOR/KOR is recorded as over 2.64, the MOR/KOR is given as over 2.64 and the “affinity at KOR (in words)” value was “μM affinity; also recorded: in a μM range”. Further, on KOR [2], the “displacement of [3H]diprenorphine at KOR (in words)” value was “did not displace [^3H]diprenorphine; also recorded: did not displace KOR antagonist binding”.

On KOR [1], `COC(=O)[C@@H]1C[C@H](OC(=O)[C@@H](N)C(C)C)C(=O)[C@H]2[C@@]1(C)CC[C@H]1C(=O)O[C@H](c3ccoc3)C[C@]21C` [Analogue 12, 2-(2′-(S)-amino-3-methylbutanoate) salvinorin B] returned a DOR/KOR of over 238 and an MOR/KOR of over 238. On KOR [3], the “agonist activity at KOR (in words)” value is “full agonist”.

For the compound `NCC(=O)O` [Gly], the “stability (in words)” value in data set [4] is recorded as “unstable”.

With `CNCC(=O)O` [Sar], the “stability (in words)” value in data set [4] was “unstable”.
